Test results as given in US20230285598A1, “SULFOXONIUM YLIDE DERIVATIVES AS PROBES FOR CYSTEINE PROTEASE” (Takeda Pharmaceutical Company Limited, priority 2018, published 2023).

Experiments:
[1] = target: T1, cathepsin X (Mus musculus, UniProt Q9WUU7); assay: Confocal microscopy of kidney cryosections after in vivo probe administration
Protocol: Kidney tissues from mice that received sCy5-Nle-SY (or vehicle control) above were fixed overnight in 4% paraformaldehyde in PBS followed by overnight cryoprotection in 30% sucrose. Tissues were embedded in OCT, frozen on dry ice, and sectioned at 10 µm. Immunostaining for cathepsin X was carried out according to standard protocols. In brief, sections were air dried, fixed in cold acetone for 10 minutes, air dried again, and then rehydrated in PBS. Sections were blocked in PBS containing 3% normal horse serum with 0.1% Triton X-100. Goat anti-cathepsin X was added at 1:100 in blocking buffer overnight at 4° C. Sections were then washed, and secondary antibody, donkey anti-goat-AlexaFluor594 was added at 1:500 for 1 hour at room temperature. Sections were stained with DAPI for 5 minutes, washed, and mounted with ProLong Diamond. Staining was analyzed using a Leica SP8 inverted confocal microscope.
Additionally, after in vivo probe administration, kidney cryosections from sCy5-Nle-SY-injected mice or no-probe control were prepared and analyzed by confocal microscopy for sCy5 fluorescence (red) or cathepsin X immunoreactivity (green) along with DAPI (blue) to visualize nuclei. […] Thus, sCy5-Nle-SY could be used to distinguish active cathepsin X relative to total cathepsin X in tissues after in vivo administration.

[2] = target: T1, cathepsin X; assay: Probe labeling of living RAW264.7 cells, in-gel fluorescence; assay type: cell-based; set-up: protein lysates prepared from RAW264.7 cells; host or cells: RAW264.7; details: Example 8; 0.1-5 µM for 2 hours
Protocol: AW cells or MDA-MB-231 ^HM cells were plated in 12-well plates. Where indicated, MDV-590 or vehicle was added at 10 µM from a 10 mM DMSO stock for overnight incubation. When the cell density reached 80%, the indicated probes were added at the indicated concentrations from a 1000x DMSO stock and allowed to incubate for the indicated time. Media was then removed and replaced with PBS. The cells were then scraped and transferred to tubes, and lysis and SDS-PAGE analysis were carried out as above, except skipping the probe addition step. […]
In Example 8, sulfoxonium ylide probes as prepared in accordance with Example 1 were applied to live RAW264.7 cells for two hours, in order to examine the potency and permeability of the sulfoxonium ylide probe series in living cells, and the results compared to BMV109.
The sulfoxonium ylide probes (and BMV109) were each added with increasing probe concentrations of 0.1 µM, 0.5 µM, 1 µM and 5 µM for 2 hours. […]

T1 sequence (Q9WUU7 64-306): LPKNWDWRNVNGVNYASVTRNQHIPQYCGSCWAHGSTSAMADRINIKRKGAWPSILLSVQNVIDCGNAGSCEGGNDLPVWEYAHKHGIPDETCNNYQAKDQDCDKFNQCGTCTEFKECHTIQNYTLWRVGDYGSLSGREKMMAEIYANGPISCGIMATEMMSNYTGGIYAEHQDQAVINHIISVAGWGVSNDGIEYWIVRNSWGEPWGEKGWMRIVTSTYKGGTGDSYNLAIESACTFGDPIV

CCCC[C@H](NC(=O)CCCCCN1/C(=C/C=C/C=C/C2=[N+](CC)c3ccc(S(=O)(=O)[O-])cc3C2(C)C)C(C)(C)c2cc(S(=O)(=O)O)ccc21)C(=O)C=S(C)(C)=O [sCy5-Nle-SY]
sCy5 fluorescence in kidney cryosections ([1]; after in vivo probe administration): Strong punctate sCy5 fluorescence was observed | overlap of sCy5 signal with cathepsin X immunoreactivity ([1]; kidney cryosections after in vivo probe administration): signal largely overlapped with immunoreactive cathepsin X | cathepsins labeled in live RAW264.7 cells [2]: labeled cathepsin X and S to similar extents and with similar potency
